We go through 22 compounds from patent US10316017B2, “COT modulators and methods of use thereof” (Gilead Sciences, Inc., priority 2015, dated 2019).

SMILES strings stand for the structures. Where two headings read alike, the source gives them in different places. A value given as a limit tells only on which side of the number the result lay.

For assay [1], the system named is TNFα production in LPS-stimulated human monocytes. Description: Cot Monocyte TNFα Cell Based Assay. Particulars: Homo sapiens, Monocyte, TNFα in LPS-stimulated human monocytes; read-out: EC50 TNF. The procedure, abridged: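 TNFα release quantified by two-antibody TR-FRET, normalised to unstimulated (0%) and LPS-stimulated (100%) wells. Cells got a 1 h compound exposure at 37° C in 0.5% DMSO before 4 h challenge with 50 pg/ml LPS, at 5,000 cells/well.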

Assay [2] concerns the target T1, human Cot catalytic domain (30-397 amino acids) (Homo sapiens, UniProt P41279).
T1 construct: Purified recombinant human Cot catalytic domain (30-397 amino acids) was purchased from Cama Biosciences; purchased Cama Biosciences (so in the source)
Kind of assay: High Throughput Cot Biochemical Assay (KinEASE TR-FRET). Particulars: read-out: IC50 HTRF. In short, it runs like this: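 TR-FRET (KinEASE) read-out: Eu-labelled phospho-specific antibody binds XL665-tagged STK3 peptide (1 μM) phosphorylated by 5 nM human Cot kinase domain (residues 30-397). Reaction at 400 μM ATP, pH 7.0 MOPS buffer with 10 mM MgOAc, 1 mM DTT and 0.1% DMSO.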

[3] abbreviates: Cot KinEASE TR-FRET (HTRF) biochemical assay, 400 μM ATP.
[4] abbreviates: Cot biochemical HTRF (KinEASE TR-FRET) assay.

T1 sequence (P41279 30-397): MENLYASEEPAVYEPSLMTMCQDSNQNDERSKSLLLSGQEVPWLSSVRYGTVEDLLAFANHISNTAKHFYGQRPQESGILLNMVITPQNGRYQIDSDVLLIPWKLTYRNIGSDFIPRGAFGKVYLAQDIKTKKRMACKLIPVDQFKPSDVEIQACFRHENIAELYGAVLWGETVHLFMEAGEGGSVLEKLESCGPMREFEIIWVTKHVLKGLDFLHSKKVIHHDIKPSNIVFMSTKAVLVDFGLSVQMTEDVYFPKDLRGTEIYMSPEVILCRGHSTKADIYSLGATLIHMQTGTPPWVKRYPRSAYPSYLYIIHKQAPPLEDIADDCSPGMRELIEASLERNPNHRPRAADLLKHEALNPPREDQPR

A word on the EC50: it is the midpoint of the concentration-response curve. For orientation: IC50 means the concentration that gives 50% inhibition. For `[2H][C@](Nc1cc(C#N)c2ncc(C#N)c(N[C@H](CC)c3ccccc3)c2c1)(c1ccc(F)cc1)c1cn(C)nn1` [Example 208, 6-(((S)-(4-fluorophenyl)(1-methyl-1H-1,2,3-triazol-4-yl)methyl-d)amino)-4-(((R)-1-phenylpropyl)amino) quinoline-3,8-dicarbonitrile], the concentration for a half-maximal effect (EC50) in assay [1] came out at 0.083 µM. Also, the IC50 in assay [2] (setting [3]) was 0.003 µM.
In the case of `N#Cc1cnc2c(Cl)cc(N[C@@H](c3ccccc3)c3cn(CC(F)F)nn3)cc2c1Nc1ccc(F)c(Cl)c1` [Example 669, (S)-8-chloro-4-((3-chloro-4-fluorophenyl)amino)-6-(((1-(2,2-difluoroethyl)-1H-1,2,3-triazol-4-yl)(phenyl)methyl)amino) quinoline-3-carbonitrile], in assay [1], the EC50 was found to be 1.09 µM. For the same compound, in assay [2] (setting [4]), the IC50 was found to be 0.039 µM.
As for `[2H][C@@](Nc1cc(Cl)c2ncc(C#N)c(N[C@H](CC)c3ccccc3)c2c1)(c1cn(C2CC2)nn1)c1ccccc1Cl` [Example 357, 8-chloro-6-(((S)-(2-chlorophenyl)(1-cyclopropyl-1H-1,2,3-triazol-4-yl)methyl-d)amino)-4-(((R)-1-phenylpropyl)amino) quinoline-3-carbonitrile], the EC50 in assay [1] worked out at 0.522 µM. For the same compound, in assay [2] (setting [3]), the 50% inhibitory concentration (IC50) came out at 0.02 µM.
The matching figures for `[2H][C@](Nc1cc(Cl)c2ncc(C#N)c(N[C@H](CCC#N)c3ccccc3)c2c1)(c1cn(C2CC2)nn1)c1ccccc1Cl` [Example 89, 8-chloro-6-(((2-chlorophenyl) (1-cyclopropyl-1H-1,2,3-triazol-4-yl)methyl-d)amino)-4-(((R)-3-cyano-1-phenylpropyl)amino) quinoline-3-carbonitrile]: 0.038 µM and 0.002 µM.
For the compound `[2H][C@](Nc1cc(Cl)c2ncc(C#N)c(NC3CC(C)(C)C3)c2c1)(c1ccc(F)cc1)c1cn(C2CC2)nn1` [Example 205, (S)-8-chloro-6-(((1-cyclopropyl-1H-1,2,3-triazol-4-yl)(4-fluorophenyl)methyl-d)amino)-4-((3,3-dimethylcyclobutyl)amino)quinoline-3-carbonitrile], the half-maximal effective concentration (EC50) in assay [1] came to 0.873 µM. The IC50 in assay [2] (setting [3]) came to 0.038 µM.
The like results for `[2H][C@](Nc1cc(Cl)c2ncc(C#N)c(NC(C)(C)C(C)C)c2c1)(c1ccc(F)cc1)c1cn(C2CC2)nn1` [Example 213, (S)-8-chloro-6-(((1-cyclopropyl-1H-1,2,3-triazol-4-yl)(4-fluorophenyl)methyl-d)amino)-4-((2,3-dimethylbutan-2-yl)amino)quinoline-3-carbonitrile] were, in that order, 0.407 µM and 0.024 µM.
The like results for `[2H][C@](Nc1cc(Cl)c2ncc(C#N)c(Nc3cnc(F)c(F)c3)c2c1)(c1cccc(C#N)c1)c1cn(C2CC2)nn1` [Example 369, (S)-8-chloro-6-(((3-cyanophenyl)(1-cyclopropyl-1H-1,2,3-triazol-4-yl)methyl-d)amino)-4-((5,6-difluoropyridin-3-yl)amino)quinoline-3-carbonitrile] were, in that order, 0.093 µM and 0.004 µM.
The matching figures for `[2H][C@](Nc1cc(Cl)c2ncc(C#N)c(NC3CC3(C)C)c2c1)(c1ccc(F)cc1)c1cn(C2CC2)nn1` (stereo partly drawn) [Example 156, 8-chloro-6-(((S)-(1-cyclopropyl-1H-1,2,3-triazol-4-yl)(4-fluorophenyl)methyl-d)amino)-4-((2,2-dimethylcyclopropyl)amino)quinoline-3-carbonitrile]: 0.477 µM and 0.03 µM.
With `[2H][C@](Nc1cc(Cl)c2ncc(C#N)c(NCCc3cccnc3)c2c1)(c1ccc(F)cc1)c1cn(C2CC2)nn1` [Example 271, (S)-8-chloro-6-(((1-cyclopropyl-1H-1,2,3-triazol-4-yl)(4-fluorophenyl)methyl-d)amino)-4-((2-(pyridin-3-yl)ethyl)amino)quinoline-3-carbonitrile], the EC50 in assay [1] amounted to 4.56 µM. The IC50 in assay [2] (setting [3]) is 0.434 µM.
For the compound `[2H][C@](Nc1cc(Cl)c2ncc(C#N)c(N[C@H](CC#N)c3ccccc3)c2c1)(c1ccc(F)cc1)c1cn(C2CC2)nn1` [Example 331, 8-chloro-4-(((R)-2-cyano-1-phenylethyl)amino)-6-(((S)-(1-cyclopropyl-1H-1,2,3-triazol-4-yl)(4-fluorophenyl)methyl-d)amino)quinoline-3-carbonitrile], in assay [1], the concentration giving a half-maximal response (EC50) worked out at 0.075 µM. The half-inhibitory concentration (IC50) in assay [2] (setting [3]) was found to be 0.004 µM.
The like results for `[2H]C(Nc1cc(Cl)c2ncc(C#N)c(NC(CS(C)(=O)=O)c3ccccc3)c2c1)(c1ccc(F)cc1)c1cn(C2CC2)nn1` (centres unmarked) [Example 193, 8-chloro-6-(((1-cyclopropyl-1H-1,2,3-triazol-4-yl)(4-fluorophenyl)methyl-d)amino)-4-((2-(methylsulfonyl)-1-phenylethyl)amino) quinoline-3-carbonitrile] were, in that order, 0.833 µM and 0.057 µM.
In the case of `N#Cc1cnc2c(Cl)cc(N[C@@H](c3ccc(F)cc3)c3c[nH]nn3)cc2c1NCC1CCOC1` (stereo partly drawn) [Example 420, 8-chloro-6-(((S)-(4-fluorophenyl)(1H-1,2,3-triazol-4-yl)methyl)amino)-4-(((tetrahydrofuran-3-yl)methyl)amino)quinoline-3-carbonitrile], in assay [1], the EC50 is 5.16 µM. In addition, the IC50 in assay [2] (setting [4]) came out at 0.191 µM.
On to `N#Cc1cnc2c(Cl)cc(N[C@@H](c3ccc(F)cc3)c3cn(C4CC4)nn3)cc2c1NC(CC(F)(F)F)c1ccccc1` (stereo partly drawn) [Example 347, 8-chloro-6-(((S)-(1-cyclopropyl-1H-1,2,3-triazol-4-yl)(4-fluorophenyl)methyl)amino)-4-((3,3,3-trifluoro-1-phenylpropyl)amino)quinoline-3-carbonitrile], for which, in assay [1], the EC50 is 0.773 µM. The IC50 in assay [2] (setting [3]) was 0.024 µM.
The like results for `CC(C)(C)CNc1c(C#N)cnc2c(Cl)cc(N[C@H](c3cn(C4(C(N)=O)CC4)nn3)c3ccccc3Cl)cc12` [Example 70, (S)-1-(4-(((8-chloro-3-cyano-4-(neopentylamino)quinolin-6-yl)amino) (2-chlorophenyl)methyl)-1H-1,2,3-triazol-1-yl) cyclopropane-1-carboxamide] were, in that order, 0.124 µM and 0.009 µM.
The like results for `CC(C)(C)N1CCC(n2cc([C@@H](Nc3cc(Cl)c4ncc(C#N)c(Nc5ccc(F)c(Cl)c5)c4c3)c3cccc(-c4ncco4)c3)nn2)CC1` [Compound 23] were, in that order, 0.095 µM and 0.002 µM.
The like results for `N#Cc1cnc2c(Cl)cc(N[C@@H](c3ccc(F)cc3)c3c[nH]nn3)cc2c1Nc1ccc(F)cc1F` [Example 367, (S)-8-chloro-4-((2,4-difluorophenyl)amino)-6-(((4-fluorophenyl)(1H-1,2,3-triazol-4-yl)methyl)amino)quinoline-3-carbonitrile] were, in that order, 3.85 µM and 0.297 µM.
Turning to `CC(C)(C)n1cc([C@@H](Nc2cc(Cl)c3ncc(C#N)c(Nc4cnc(F)c(F)c4)c3c2)c2ccc(F)cc2)nn1` [Example 457, (S)-6-(((1-(tert-butyl)-1H-1,2,3-triazol-4-yl)(4-fluorophenyl)methyl)amino)-8-chloro-4-((5,6-difluoropyridin-3-yl)amino)quinoline-3-carbonitrile], the half-maximal effective concentration (EC50) in assay [1] worked out at 0.616 µM. Besides, the IC50 in assay [2] (setting [4]) was 0.043 µM.
For the compound `CC(C)(C)N1CCC(n2cc([C@@H](Nc3cc(Cl)c4ncc(C#N)c(Nc5ccc(F)c(Cl)c5)c4c3)c3cccc(C=O)c3)nn2)CC1` [Compound 42], in assay [1], the EC50 worked out at 0.138 µM. Also, the 50% inhibitory concentration (IC50) in assay [2] (setting [3]) was 0.005 µM.
In the case of `N#Cc1cnc2c(F)cc(N[C@@H](c3ccc(Cl)cc3)c3cn(C4CCNCC4)nn3)cc2c1Nc1ccc(F)c(Cl)c1` [Example 814, (S)-4-((3-chloro-4-fluorophenyl)amino)-6-(((4-chlorophenyl)(1-(piperidin-4-yl)-1H-1,2,3-triazol-4-yl)methyl)amino)-8-fluoroquinoline-3-carbonitrile], in assay [1], the EC50 was found to be 0.704 µM. For the same compound, the half-inhibitory concentration (IC50) in assay [2] (setting [4]) was determined as 0.01 µM.
The like results for `C[C@H](Nc1c(C#N)cnc2c(Cl)cc(N[C@@H](c3ccccc3)c3cn(C4CCN(C(C)(C)C)CC4)nn3)cc12)C1CCOCC1` [Example 522, 6-(((S)-(1-(1-(tert-butyl)piperidin-4-yl)-1H-1,2,3-triazol-4-yl)(phenyl)methyl)amino)-8-chloro-4-(((S)-1-(tetrahydro-2H-pyran-4-yl)ethyl)amino)quinoline-3-carbonitrile] were, in that order, 9.72 µM and 0.786 µM.
The matching figures for `CC(C)n1cc([C@@H](Nc2cc(Cl)c3ncc(C#N)c(NC4CCN(C)CC4)c3c2)c2ccccc2)nn1` [Example 541, (S)-8-chloro-6-(((1-isopropyl-1H-1,2,3-triazol-4-yl)(phenyl)methyl)amino)-4-((1-methylpiperidin-4-yl)amino)quinoline-3-carbonitrile]: greater than 10 µM and 7.31 µM.
For the compound `CC(C)(C)N1CCC(n2cc([C@@H](Nc3cc(Cl)c4ncc(C#N)c(Nc5ccc(F)c(Cl)c5F)c4c3)c3ccc(Cl)cc3)nn2)CC1` [Example 695, (S)-6-(((1-(1-(tert-butyl)piperidin-4-yl)-1H-1,2,3-triazol-4-yl)(4-chlorophenyl)methyl)amino)-8-chloro-4-((3-chloro-2,4-difluorophenyl)amino)quinoline-3-carbonitrile], in assay [1], the concentration giving a half-maximal response (EC50) was found to be 0.434 µM. In assay [2] (setting [4]), the IC50 worked out at 0.019 µM.
